Experimental data reported in publication PMC7730205, “Different Sensitivity of Control and MICU1- and MICU2-Ablated Trypanosoma cruzi Mitochondrial Calcium Uniporter Complex to Ruthenium-Based Inhibitors” (International Journal of Molecular Sciences, 2020).

Experiments:
[1] = test system: T. cruzi epimastigotes; assay: Epimastigote growth in LIT medium; assay type: cell-based, Trypanosoma cruzi; conditions: 1 µM, 5 µM and 10 µM
Description: We analyzed the growth rate of epimastigotes in LIT medium at different Ru265 concentrations (1 µM, 5 µM, and 10 µM). […] The presence of metabolic inhibitors affects attachment and invasion of T. cruzi trypomastigotes to mammalian cells since these are an active process which depends on the expenditure of parasite energy. Preincubation of trypomastigotes for 30 min with antimycin A, which blocks electron transport from cytochrome b to c1, decreased the ability of trypomastigotes to attach to glutaraldehyde-fixed cells (Figure 4b) and invade intact host cells (Figure 4c).
Figure 4 Effect of Ru265 on Trypanosoma cruzi. (a) Effect of Ru265 on epimastigote growth. […] After 1 h of incubation at 37 °C, the cells were washed, and the number of attached trypomastigotes was counted. […] After 4 h of incubation at 37 °C, the cells were washed, and the number of intracellular parasites was counted. […] (f) Routine respiration (initial oxygen flux values), leak respiration after the addition of 0.5 µg/mL of oligomycin A, and electron transfer system (ETS) capacity after the sequential additions of FCCP (0.2 μM each) were measured for each condition. […] (g) Representative experiment showing mitochondrial Ca^2+ uptake by intact epimastigotes in relative fluorescence units (RFU). […] (h) Changes in fluorescence (before and after ionomycin addition) from three experiments like that shown in panel (g). […]

[2] = test system: T. cruzi epimastigotes (intact, non-permeabilized); assay: Mitochondrial Ca2+ uptake in intact epimastigotes using Rhod-2 AM; assay type: cell-based, Trypanosoma cruzi
Description: Figure 4 Effect of Ru265 on Trypanosoma cruzi. (a) Effect of Ru265 on epimastigote growth. Growth of control epimastigotes in LIT medium in the presence of 1 μM, 5 μM, and 10 μM Ru265. (b) Effect of Ru265 on trypomastigote attachment. Trypomastigotes were pretreated for 30 min with 1 μM antimycin A (AA) or 10 μM Ru265 and added to glutaraldehyde-fixed Vero cells. After 1 h of incubation at 37 °C, the cells were washed, and the number of attached trypomastigotes was counted. […] (c) Effect of Ru265 on trypomastigotes infection. Trypomastigotes were pretreated for 30 min with 1 μM antimycin A or 10 μM Ru265 and added to Vero cells. After 4 h of incubation at 37 °C, the cells were washed, and the number of intracellular parasites was counted. […] (f) Routine respiration (initial oxygen flux values), leak respiration after the addition of 0.5 µg/mL of oligomycin A, and electron transfer system (ETS) capacity after the sequential additions of FCCP (0.2 μM each) were measured for each condition. […] (g) Representative experiment showing mitochondrial Ca^2+ uptake by intact epimastigotes in relative fluorescence units (RFU). […] (h) Changes in fluorescence (before and after ionomycin addition) from three experiments like that shown in panel (g). […]

For N.N.N.N.N.N.N.N.[Cl][Ru+3].[N-]=[Ru][Cl] [Ru265], the Toxicity to epimastigotes [1] was “nontoxic at the concentrations tested”, the “Effect on growth rate of epimastigotes” value ([1]; control epimastigotes) was “does not affect the growth rate” and the “Amount of Ca2+ taken up by mitochondria of intact cells (Rhod-2 fluorescence)” value ([2]; 50 µM Ru265 for 30 min, nigericin + ionomycin, three experiments) was “no significant difference”. The “Permeability in trypanosomes (inferred from lack of effect on intact cells)” value ([2]; intact epimastigotes) was “low permeability”.
